ChEMBL document CHEMBL5465560, “Selectivity Literature for EUbOPEN Chemogenomic Library” (2024)

What was measured:
[1] = target: Cyclin-dependent kinase 1 (Homo sapiens) (UniProt P06493); assay: Selectivity interaction (Kinase panel (KiNativ target engagement assay in Jurkat cells)) EUB0001635a CDK1; type: cell-based; settings: Selectivity number of off-targets 0.0, Selectivity number of targets 233.0, Source Knowledge https://www.sciencedirect.com/science/article/pii/S2451945619300674?via%3Dihub, at 1 µM
Cyclin-dependent kinase 1 (Homo sapiens), sequence (P06493 whole entry, looked up): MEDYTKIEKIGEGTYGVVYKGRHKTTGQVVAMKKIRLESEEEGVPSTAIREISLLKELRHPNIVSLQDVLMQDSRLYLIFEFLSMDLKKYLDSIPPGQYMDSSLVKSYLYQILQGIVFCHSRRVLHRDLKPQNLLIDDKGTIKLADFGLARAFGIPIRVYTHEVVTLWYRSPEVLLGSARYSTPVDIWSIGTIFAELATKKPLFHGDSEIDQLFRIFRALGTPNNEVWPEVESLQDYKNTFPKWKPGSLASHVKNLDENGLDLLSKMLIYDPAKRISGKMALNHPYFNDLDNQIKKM

[2] = target: Transcription intermediary factor 1-beta (Homo sapiens) (UniProt Q13263); assay: Selectivity interaction (Human bromodomain panel (DSF assay)) EUB0000233b TRIM28
[3] = target: G protein-coupled receptor kinase 4 (Homo sapiens) (UniProt P32298); assay: Selectivity interaction (KinomeScan (DiscoverX)) EUB0000229b GRK4; settings: at 10 µM
G protein-coupled receptor kinase 4 (Homo sapiens), sequence (P32298 whole entry, looked up): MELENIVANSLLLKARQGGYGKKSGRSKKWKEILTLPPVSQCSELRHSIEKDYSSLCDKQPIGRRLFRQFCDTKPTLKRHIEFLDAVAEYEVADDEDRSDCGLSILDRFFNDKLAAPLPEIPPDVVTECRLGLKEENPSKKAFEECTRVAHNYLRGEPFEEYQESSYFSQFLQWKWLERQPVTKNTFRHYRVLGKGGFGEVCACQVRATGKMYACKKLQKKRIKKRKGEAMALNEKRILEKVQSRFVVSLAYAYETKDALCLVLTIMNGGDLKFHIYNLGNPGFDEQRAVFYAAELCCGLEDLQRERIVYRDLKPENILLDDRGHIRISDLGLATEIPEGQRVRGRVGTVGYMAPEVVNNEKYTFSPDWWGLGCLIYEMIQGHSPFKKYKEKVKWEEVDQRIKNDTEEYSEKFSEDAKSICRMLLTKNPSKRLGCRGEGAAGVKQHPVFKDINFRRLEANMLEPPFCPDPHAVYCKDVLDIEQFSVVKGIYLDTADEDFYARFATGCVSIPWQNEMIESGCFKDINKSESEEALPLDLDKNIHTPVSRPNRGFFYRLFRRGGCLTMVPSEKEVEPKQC

[4] = target: T1, cGMP-dependent protein kinase 1 (Homo sapiens) (UniProt Q13976); assay: Selectivity interaction (KinomeScan (DiscoverX)) EUB0000229b PRKG1; settings: at 10 µM
T1 sequence (whole entry): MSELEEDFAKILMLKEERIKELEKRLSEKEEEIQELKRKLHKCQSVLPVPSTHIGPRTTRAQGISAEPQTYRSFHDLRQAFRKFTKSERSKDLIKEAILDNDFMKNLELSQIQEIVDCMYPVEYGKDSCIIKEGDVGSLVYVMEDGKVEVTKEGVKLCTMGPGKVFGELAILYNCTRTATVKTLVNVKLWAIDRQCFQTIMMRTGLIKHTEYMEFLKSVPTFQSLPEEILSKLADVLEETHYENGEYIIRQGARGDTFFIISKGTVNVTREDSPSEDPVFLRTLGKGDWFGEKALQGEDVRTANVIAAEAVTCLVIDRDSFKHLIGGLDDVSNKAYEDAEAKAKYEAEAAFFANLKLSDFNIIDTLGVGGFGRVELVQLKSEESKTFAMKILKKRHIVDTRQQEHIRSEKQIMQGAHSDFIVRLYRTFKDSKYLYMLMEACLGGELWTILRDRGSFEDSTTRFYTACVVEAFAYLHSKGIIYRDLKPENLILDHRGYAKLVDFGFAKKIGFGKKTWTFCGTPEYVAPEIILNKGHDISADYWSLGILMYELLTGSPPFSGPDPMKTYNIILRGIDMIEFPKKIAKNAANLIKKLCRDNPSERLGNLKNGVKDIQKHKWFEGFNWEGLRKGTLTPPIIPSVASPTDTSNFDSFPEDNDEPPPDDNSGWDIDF

[5] = target: Myosin light chain kinase, smooth muscle (Homo sapiens, UniProt Q15746); assay: Selectivity interaction (KinomeScan (DiscoverX)) EUB0001079a MYLK; settings: at 1 µM
[6] = target: Protein kinase C beta type (Homo sapiens, UniProt P05771); assay: Selectivity interaction (Kinase panel (Z-LYTE Assay)) EUB0001632a PRKCB; settings: at 10 µM
Protein kinase C beta type, sequence (P05771 2-671 limits assumed): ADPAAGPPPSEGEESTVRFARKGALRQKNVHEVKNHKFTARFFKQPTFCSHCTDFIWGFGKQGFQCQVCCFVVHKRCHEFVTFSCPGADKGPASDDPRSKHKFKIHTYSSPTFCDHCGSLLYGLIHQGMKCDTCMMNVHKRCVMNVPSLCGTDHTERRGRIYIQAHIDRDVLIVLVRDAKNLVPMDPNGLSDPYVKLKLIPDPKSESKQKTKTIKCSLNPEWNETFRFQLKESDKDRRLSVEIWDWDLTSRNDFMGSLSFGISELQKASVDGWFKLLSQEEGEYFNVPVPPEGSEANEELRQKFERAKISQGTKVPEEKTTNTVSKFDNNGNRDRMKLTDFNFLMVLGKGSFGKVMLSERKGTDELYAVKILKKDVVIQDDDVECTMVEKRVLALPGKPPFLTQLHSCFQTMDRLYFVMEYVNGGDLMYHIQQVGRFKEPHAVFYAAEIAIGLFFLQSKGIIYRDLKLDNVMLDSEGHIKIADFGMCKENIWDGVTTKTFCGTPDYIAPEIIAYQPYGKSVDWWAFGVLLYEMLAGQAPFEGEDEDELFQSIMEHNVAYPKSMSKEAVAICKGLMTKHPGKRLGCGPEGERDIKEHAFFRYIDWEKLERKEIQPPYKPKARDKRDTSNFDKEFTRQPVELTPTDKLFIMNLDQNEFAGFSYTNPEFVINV

[7] = target: T2, Dual specificity mitogen-activated protein kinase kinase 4 (Homo sapiens) (UniProt P45985); assay: Selectivity interaction (KinomeScan (DiscoverX)) EUB0001619a MAP2K4; settings: at 1 µM
T2 sequence (whole entry): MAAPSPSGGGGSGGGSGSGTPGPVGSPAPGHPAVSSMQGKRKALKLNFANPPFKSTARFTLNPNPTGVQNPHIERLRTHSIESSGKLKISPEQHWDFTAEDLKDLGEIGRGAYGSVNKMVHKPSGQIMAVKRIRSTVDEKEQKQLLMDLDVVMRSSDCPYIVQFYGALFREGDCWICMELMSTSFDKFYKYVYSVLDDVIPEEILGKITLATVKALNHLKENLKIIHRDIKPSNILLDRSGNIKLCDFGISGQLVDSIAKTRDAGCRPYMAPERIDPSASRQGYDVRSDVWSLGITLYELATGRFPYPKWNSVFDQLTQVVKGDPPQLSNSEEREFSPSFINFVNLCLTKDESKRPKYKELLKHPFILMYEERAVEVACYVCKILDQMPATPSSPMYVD

[8] = target: Homeodomain-interacting protein kinase 3 (Homo sapiens, UniProt Q9H422); assay: Selectivity interaction (KinomeScan (DiscoverX)) EUB0001619a HIPK3; settings: at 1 µM
[9] = target: Histone-lysine N-methyltransferase PRDM9 (Homo sapiens) (UniProt Q9NQV7); assay: Selectivity interaction (Methyltransferase screen (Scintillation proximity assays)) EUB0000255b PRDM9
Histone-lysine N-methyltransferase PRDM9 (Homo sapiens), sequence (Q9NQV7 whole entry): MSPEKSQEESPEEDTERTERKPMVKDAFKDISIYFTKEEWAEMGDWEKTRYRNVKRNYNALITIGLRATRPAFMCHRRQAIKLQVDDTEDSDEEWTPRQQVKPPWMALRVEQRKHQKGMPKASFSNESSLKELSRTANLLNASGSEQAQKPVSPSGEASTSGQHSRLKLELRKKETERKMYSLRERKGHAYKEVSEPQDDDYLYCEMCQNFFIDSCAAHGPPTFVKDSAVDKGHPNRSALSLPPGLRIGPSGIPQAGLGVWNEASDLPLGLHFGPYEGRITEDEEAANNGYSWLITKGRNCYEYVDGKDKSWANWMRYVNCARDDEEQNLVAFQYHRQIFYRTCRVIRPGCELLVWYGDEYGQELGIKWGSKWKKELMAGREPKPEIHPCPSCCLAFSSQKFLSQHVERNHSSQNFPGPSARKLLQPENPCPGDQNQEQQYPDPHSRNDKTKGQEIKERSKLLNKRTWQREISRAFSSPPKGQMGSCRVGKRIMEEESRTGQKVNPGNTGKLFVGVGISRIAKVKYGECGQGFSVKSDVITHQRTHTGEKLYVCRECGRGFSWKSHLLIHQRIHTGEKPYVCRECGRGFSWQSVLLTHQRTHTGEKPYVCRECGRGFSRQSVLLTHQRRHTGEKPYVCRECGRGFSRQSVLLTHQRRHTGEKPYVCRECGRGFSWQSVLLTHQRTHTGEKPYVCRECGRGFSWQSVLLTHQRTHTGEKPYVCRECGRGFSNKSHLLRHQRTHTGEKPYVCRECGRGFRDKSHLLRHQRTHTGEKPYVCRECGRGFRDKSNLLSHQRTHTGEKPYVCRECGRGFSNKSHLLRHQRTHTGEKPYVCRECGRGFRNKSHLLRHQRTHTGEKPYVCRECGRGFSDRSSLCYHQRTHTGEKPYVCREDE

[10] = target: Ribosomal protein S6 kinase alpha-6 (Homo sapiens, UniProt Q9UK32); assay: Selectivity interaction (SelectScreen profiling (Invitrogen)) EUB0000607a RPS6KA6; settings: at 2 µM
[11] = target: Microtubule-associated serine/threonine-protein kinase 3 (Homo sapiens) (UniProt O60307); assay: Selectivity interaction (ActivX KiNativ screen (kinase selectivity in THP-1 cell lysates)) EUB0000639a MAST3; type: subcellular; settings: lysate
Microtubule-associated serine/threonine-protein kinase 3 (Homo sapiens), sequence (O60307 whole entry): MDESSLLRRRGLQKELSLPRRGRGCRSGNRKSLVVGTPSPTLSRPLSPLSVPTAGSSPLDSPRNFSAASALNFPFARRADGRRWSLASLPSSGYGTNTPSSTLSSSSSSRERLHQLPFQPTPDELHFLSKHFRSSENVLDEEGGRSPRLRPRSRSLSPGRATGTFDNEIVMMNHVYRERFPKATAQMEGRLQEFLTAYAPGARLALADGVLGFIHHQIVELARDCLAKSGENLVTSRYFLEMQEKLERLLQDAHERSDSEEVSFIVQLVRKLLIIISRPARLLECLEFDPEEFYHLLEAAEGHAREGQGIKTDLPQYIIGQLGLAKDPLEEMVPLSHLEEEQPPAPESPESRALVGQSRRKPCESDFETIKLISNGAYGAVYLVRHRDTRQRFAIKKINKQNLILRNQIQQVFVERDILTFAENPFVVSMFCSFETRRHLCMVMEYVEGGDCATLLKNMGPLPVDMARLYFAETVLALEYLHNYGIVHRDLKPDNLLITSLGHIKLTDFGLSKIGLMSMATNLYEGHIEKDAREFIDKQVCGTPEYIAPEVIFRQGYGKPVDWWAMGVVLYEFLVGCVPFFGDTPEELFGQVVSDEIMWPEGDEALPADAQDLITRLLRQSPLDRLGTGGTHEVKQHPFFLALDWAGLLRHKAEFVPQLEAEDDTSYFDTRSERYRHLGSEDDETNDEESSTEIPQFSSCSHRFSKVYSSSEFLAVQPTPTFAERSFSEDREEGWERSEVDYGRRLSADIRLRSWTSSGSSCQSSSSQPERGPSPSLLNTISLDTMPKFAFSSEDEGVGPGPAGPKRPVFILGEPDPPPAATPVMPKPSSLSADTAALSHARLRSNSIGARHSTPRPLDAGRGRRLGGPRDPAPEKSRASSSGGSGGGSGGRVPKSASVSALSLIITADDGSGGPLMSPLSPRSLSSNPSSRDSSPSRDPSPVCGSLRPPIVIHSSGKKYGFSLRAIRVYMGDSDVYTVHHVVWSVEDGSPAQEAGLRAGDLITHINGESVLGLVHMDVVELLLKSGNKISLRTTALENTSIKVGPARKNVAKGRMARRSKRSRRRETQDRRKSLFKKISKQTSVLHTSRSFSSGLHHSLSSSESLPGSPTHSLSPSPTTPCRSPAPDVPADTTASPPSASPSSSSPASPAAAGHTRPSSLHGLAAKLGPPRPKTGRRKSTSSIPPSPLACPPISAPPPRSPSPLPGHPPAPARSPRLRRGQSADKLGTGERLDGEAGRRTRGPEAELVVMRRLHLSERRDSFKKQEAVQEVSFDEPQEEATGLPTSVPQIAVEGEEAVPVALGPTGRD

[12] = target: Receptor tyrosine-protein kinase erbB-2 (Homo sapiens, UniProt P04626); assay: Selectivity interaction (Ambit KINOMEscan and KiNATiv profiling in Jurkat cells) EUB0000090b ERBB2; type: cell-based; settings: at 1 µM
Receptor tyrosine-protein kinase erbB-2, sequence (P04626 whole entry): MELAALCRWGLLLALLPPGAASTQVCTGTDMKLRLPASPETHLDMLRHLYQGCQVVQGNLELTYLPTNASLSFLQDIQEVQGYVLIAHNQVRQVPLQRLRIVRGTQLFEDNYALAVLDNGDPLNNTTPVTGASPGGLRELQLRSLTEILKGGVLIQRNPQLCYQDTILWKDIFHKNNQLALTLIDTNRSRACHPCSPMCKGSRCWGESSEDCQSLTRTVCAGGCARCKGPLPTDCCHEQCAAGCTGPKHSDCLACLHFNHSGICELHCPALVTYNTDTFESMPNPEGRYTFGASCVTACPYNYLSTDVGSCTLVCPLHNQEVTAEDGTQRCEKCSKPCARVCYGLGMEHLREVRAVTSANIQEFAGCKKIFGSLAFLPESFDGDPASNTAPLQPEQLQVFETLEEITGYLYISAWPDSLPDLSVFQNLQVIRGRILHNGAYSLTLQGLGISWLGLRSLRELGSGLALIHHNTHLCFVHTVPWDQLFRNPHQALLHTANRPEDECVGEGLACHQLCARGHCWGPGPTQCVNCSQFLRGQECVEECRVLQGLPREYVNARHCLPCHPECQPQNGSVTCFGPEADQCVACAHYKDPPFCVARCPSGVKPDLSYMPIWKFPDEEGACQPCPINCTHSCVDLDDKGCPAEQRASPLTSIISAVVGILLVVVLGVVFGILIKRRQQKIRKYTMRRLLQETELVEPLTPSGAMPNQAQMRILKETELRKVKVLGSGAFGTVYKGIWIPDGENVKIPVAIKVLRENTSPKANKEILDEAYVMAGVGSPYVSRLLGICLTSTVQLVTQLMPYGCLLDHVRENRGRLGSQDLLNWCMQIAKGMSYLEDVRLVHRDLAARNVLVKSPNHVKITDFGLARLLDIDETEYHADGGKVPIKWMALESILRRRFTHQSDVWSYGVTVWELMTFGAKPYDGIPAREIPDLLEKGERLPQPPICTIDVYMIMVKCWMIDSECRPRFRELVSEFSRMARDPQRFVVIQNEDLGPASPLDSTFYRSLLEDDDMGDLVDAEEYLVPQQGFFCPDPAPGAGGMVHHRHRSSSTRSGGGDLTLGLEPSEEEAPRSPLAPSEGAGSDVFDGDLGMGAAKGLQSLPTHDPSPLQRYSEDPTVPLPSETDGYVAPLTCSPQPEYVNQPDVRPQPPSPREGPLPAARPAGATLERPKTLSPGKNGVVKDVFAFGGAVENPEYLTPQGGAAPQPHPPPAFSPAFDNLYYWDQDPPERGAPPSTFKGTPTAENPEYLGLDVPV

C=CC(=O)Nc1ccc(C(=O)Nc2[nH]nc3c2CN(C(=O)N[C@H](CN(C)C)c2ccccc2)C3(C)C)cc1
% of engagement [1]: -3.1%

CN(C)CCCOc1ccc(-c2cc(NCCCn3cccn3)nc(S(C)(=O)=O)n2)cc1
dTM [2]: < 2 K

COc1cc(N(C)c2ccnc3ccc(C(F)(F)F)cc23)cc(OC)c1OC
% binding [3]: 90% | % binding [4]: 76%

Nc1cnc(N2CCc3cc(S(=O)(=O)Nc4c(F)cc(Cl)cc4F)cc(N4CCCC4=O)c32)nc1 [TP-020n]
% of control [5]: 91%

Cn1cc(-n2cnc3c(NCc4nc5cc(Cl)c(Cl)cc5[nH]4)nc(N4CCOCC4)nc32)cn1
% of control [6]: 15.6%

N#Cc1cccc(-c2c[nH]c3ncnc(N4CCOCC4)c23)c1
% of control [7]: 100% | % of control [8]: 47%

COCCN1CCC(c2cc(CN(C)C(=O)c3cccc(Oc4ccccc4)c3)ccn2)CC1
% activity ([9]; at 1 µM): > 95% | % activity ([9]; at 10 µM): > 90%

CNC(=O)Nc1ccc(-c2nc(N3CC4CCC(C3)O4)c3cnn(C4CCC5(CC4)OCCO5)c3n2)cc1
% of inhibition [10]: 12%

CC[C@@H]1[C@H](F)C(=O)N[C@@H]1COc1nccc2cc(C(N)=O)c(OC)cc12 [ZIMLOVISERTIB]
% of inhibition ([11]; at 0.01 µM): 11.4% | % of inhibition ([11]; at 0.04 µM): 9.3% | % of inhibition ([11]; at 0.2 µM): 2.6% | % of inhibition ([11]; at 1 µM): 4.8% | % of inhibition ([11]; at 5 µM): 32.1%

CN(C)C/C=C/C(=O)Nc1ccc(C(=O)N2CCCC(Nc3ncc(Cl)c(-c4c[nH]c5ccccc45)n3)C2)cc1 (configuration not stated)
% of control [12]: 96%
